The record followed here is publication PMC7004565, “Nucleotide inhibition of the pancreatic ATP-sensitive K^+ channel explored with patch-clamp fluorometry” (eLife, 2020).

One assay addresses T1, Kir6.2-GFP (no SUR1) (Homo sapiens, UniProt Q14654).
T1 construct: ANAP labelling is specific and only full-length Kir6.2 is expressed at the cell membrane; expressed in transfected cells; host or cells: HEK-293T
T1 sequence (Q14654 1-390): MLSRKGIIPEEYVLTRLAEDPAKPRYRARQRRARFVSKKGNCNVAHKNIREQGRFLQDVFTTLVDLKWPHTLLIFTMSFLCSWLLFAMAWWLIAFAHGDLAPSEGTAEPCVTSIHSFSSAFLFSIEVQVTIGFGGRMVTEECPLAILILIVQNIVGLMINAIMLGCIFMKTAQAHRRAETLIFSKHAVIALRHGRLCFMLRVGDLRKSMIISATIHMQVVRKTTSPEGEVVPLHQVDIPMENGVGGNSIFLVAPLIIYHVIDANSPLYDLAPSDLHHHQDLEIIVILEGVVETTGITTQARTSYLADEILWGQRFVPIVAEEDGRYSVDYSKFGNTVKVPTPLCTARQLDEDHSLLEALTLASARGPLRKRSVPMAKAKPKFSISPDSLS
The assay can be described thus: FRET (ANAP quenching) nucleotide binding in unroofed membranes. The text has this: To measure nucleotide binding, cells transfected with Kir6.2*-GFP + SUR1 were briefly sonicated, leaving behind unroofed plasma membrane fragments ([Heuser, 2000]; [Zagotta et al., 2016]; [Puljung et al., 2019]) containing ANAP-labelled KATP channels with the intracellular nucleotide-binding sites exposed to the bath solution. The sample was excited with a 385 nm LED and emitted fluorescence from the membrane fragments was passed through a spectrometer, allowing us to separate ANAP, GFP, and TNP-ATP fluorescence by peak wavelength (Figure 1E,F). As expected from FRET, increasing the concentration of TNP-ATP caused a decrement in the ANAP peak at 472 nm and a concomitant increase in the TNP-ATP peak at 561 nm (Figure 1F). We used the quenching of the ANAP peak as a direct measure of TNP-ATP binding as this signal was specific to KATP. In contrast, the peak TNP-ATP fluorescence may include contributions from both specific and non-specific nucleotide binding, as well as direct excitation of TNP-ATP in solution by the 385 nm excitation light. Due to the sharp cut-off of the GFP emission spectrum at shorter wavelengths, our measurements of peak ANAP fluorescence were unaffected by the presence of the GFP tag on Kir6.2.
SUR1 plays a complex role in the regulation of Kir6.2. It increases the Popen of the channel and allows for the activation of the channel by Mg-nucleotides ([Nichols et al., 1996]; [Tucker et al., 1997]; [Babenko and Bryan, 2003]; [Chan, 2003]; [Fang et al., 2006]). However, it also increases the sensitivity of Kir6.2 to nucleotide inhibition ([Babenko and Bryan, 2003]; [Chan, 2003]; [Fang et al., 2006]). To understand the effect of SUR1 on nucleotide inhibition of KATP, we expressed Kir6.2*-GFP in the absence of SUR1 in unroofed membranes and measured TNP-ATP binding (Figure 4—figure supplement 1A). […] Unfortunately, we were unable to achieve high enough expression of Kir6.2*-GFP alone to carry out PCF experiments in the absence of SUR1. […]
Epifluorescence imaging and spectroscopy were performed using a Nikon Eclipse TE2000-U microscope with a 60x water immersion objective (Plan Apo VC, NA = 1.2, Nikon; Kingston upon Thames, UK) or a 100x oil immersion objective (Nikon, Apo TIRF, NA = 1.49). […] Fluorescence spectra were collected by exciting ANAP as above but using a 400 nm long-pass emission filter (ThorLabs), then passing emitted light through an IsoPlane 160 Spectrometer (Princeton Instruments; Trenton, NJ) with a 300 grooves mm^-1 grating. […]
Unroofed membranes were prepared as described previously ([Heuser, 2000]; [Zagotta et al., 2016]; [Puljung et al., 2019]). […] Unroofed membrane fragments were nearly invisible in bright-field images and identified by their GFP and ANAP fluorescence. […]

For the next assay, the target named is Kir6.2*,C166S-GFP + SUR1 (Homo sapiens, UniProt Q14654, C166S). The assay can be described thus: ANAP fluorescence quenching in excised patches (patch-clamp fluorometry). Type of assay: binding. On the set-up: ANAP labelling is specific and only full-length Kir6.2 is expressed at the cell membrane; expressed in transfected cells; host or cells: HEK-293T. Conditions: excised patches (PCF), Hill fit. As to the method: Currents were measured as described above.
Chain of Kir6.2*,C166S-GFP + SUR1 (Q14654 whole entry C166S): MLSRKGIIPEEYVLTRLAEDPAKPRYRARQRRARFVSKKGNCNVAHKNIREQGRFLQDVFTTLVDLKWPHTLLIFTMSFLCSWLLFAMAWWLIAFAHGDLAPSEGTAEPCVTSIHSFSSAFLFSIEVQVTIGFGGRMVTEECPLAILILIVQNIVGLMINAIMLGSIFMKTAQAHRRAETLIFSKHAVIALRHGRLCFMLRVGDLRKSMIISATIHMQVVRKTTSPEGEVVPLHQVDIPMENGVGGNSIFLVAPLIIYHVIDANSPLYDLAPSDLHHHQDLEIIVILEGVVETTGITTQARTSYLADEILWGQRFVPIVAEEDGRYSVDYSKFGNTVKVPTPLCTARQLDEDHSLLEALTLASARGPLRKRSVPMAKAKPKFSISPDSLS
Chain of Kir6.2*,C166S-GFP + SUR1 (Q09428 whole entry partner): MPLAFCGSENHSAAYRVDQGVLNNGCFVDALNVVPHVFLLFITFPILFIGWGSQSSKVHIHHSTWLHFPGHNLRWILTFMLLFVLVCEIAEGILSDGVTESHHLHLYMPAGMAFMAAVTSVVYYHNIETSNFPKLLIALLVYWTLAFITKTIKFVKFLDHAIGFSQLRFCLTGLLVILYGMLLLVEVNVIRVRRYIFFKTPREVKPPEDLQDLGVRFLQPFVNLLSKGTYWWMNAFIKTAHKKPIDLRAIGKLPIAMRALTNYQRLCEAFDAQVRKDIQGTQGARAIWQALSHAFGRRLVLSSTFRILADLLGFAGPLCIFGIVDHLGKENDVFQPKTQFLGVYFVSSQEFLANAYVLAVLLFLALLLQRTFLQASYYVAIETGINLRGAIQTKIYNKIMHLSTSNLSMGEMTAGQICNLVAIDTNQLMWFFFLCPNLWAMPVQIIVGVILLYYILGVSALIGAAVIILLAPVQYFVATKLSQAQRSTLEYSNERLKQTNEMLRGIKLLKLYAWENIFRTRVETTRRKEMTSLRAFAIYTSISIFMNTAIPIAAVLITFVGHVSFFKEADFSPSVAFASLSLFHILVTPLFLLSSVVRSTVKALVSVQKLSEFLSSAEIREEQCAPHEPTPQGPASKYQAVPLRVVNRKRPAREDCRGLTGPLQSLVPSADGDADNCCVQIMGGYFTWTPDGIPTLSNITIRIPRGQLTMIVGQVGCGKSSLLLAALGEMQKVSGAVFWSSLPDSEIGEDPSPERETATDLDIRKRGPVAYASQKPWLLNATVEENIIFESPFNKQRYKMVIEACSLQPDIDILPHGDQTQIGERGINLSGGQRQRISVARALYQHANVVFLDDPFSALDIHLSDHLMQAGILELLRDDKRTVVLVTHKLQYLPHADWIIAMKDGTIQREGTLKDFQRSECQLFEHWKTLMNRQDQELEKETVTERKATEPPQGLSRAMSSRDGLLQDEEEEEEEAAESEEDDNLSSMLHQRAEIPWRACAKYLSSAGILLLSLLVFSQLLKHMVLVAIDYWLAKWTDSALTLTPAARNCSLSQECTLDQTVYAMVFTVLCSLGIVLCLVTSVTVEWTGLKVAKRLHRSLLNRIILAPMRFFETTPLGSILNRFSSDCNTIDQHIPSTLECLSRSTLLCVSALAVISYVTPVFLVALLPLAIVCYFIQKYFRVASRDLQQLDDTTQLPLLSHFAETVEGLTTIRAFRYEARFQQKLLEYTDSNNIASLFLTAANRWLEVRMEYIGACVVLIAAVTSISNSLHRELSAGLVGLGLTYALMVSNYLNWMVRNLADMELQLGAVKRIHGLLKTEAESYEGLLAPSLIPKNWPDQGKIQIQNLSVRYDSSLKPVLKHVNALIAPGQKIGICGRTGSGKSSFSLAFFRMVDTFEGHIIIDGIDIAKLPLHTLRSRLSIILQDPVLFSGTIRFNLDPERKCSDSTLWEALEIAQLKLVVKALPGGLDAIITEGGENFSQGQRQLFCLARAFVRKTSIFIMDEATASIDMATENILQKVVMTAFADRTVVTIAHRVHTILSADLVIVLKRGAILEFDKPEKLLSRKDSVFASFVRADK
ANAP bleaching was corrected as for the unroofed binding experiments with Equation 1 (Figure 2—figure supplement 3A). Due to the lower signal-to-noise ratio for PCF compared to the unroofed membranes, we performed experiments from both high-to-low and low-to-high TNP-ATP concentrations to minimise artifacts from our bleaching corrections.

The structures appear in SMILES notation. Where “and” joins values, the source holds several entries; their conditions need not be identical. Equal entries are not always repeated.

As for `Nc1ncnc2c1ncn2[C@@H]1O[C@H](COP(=O)(O)OP(=O)(O)OP(=O)(O)O)[C@H]2OC3(O[C@H]21)C([N+](=O)[O-])=CC(=[N+]([O-])[O-])C=C3[N+](=O)[O-]` (stereo partly shown) [TNP-ATP, trinitrophenyl-ATP], on Kir6.2-GFP (no SUR1), the “increase in apparent EC50 compared to the same construct in the presence of SUR1” value is listed as “approximately 1.5 fold”. In addition, the “h (Hill coefficient) fluorescence quenching” value is given as 0.83 at Kir6.2-GFP (no SUR1) (no SUR1, Hill fit) and 0.84 on Kir6.2*,C166S-GFP + SUR1. The Emax – broadly, the maximal effect, on the per cent scale that the assay sets – was 92% on Kir6.2-GFP (no SUR1) (no SUR1, Hill fit, fraction, read-out: Emax fluorescence quenching) and 100% on Kir6.2*,C166S-GFP + SUR1 (fraction). For the same compound, the EC50 (as a rule, the concentration that produces a half-maximal response) is 37.6 µM and 38 µM at Kir6.2-GFP (no SUR1) (no SUR1, Hill fit, n = 14, read-out: EC50 fluorescence quenching); 67.6 µM on Kir6.2*,C166S-GFP + SUR1 (n = 6).
